Common to all, as to type: cell-based
For assay [1], the target named is T1, Equilibrative nucleoside transporter 1 (Mus musculus) (UniProt Q9JIM1).
T1 sequence (whole entry): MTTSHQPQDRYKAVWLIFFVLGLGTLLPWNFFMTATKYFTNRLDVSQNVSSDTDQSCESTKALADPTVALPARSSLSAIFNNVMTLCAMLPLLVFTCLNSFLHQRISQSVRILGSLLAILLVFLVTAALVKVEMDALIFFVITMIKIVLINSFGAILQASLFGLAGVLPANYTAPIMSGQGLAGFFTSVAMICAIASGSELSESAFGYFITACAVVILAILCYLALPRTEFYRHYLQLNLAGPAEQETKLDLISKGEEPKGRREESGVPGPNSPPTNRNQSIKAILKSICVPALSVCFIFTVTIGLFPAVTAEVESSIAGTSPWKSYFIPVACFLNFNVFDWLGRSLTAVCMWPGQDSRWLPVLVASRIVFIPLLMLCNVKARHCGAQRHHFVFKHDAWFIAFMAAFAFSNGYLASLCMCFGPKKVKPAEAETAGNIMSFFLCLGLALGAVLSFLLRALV
Kind of assay: Transport through ENT1 in mouse hepatocytes by oil filtration assay in presence of sodium ions in Kreb-henseleit buffer. The note with it: Hepatocyte.

Assay [2] deals with Hepatocyte. Kind of assay: Transport through CNT3 in mouse hepatocytes by oil filtration assay in presence of sodium ions in Kreb-henseleit buffer.
Assay [3] addresses T2, Equilibrative nucleoside transporter 1 (Rattus norvegicus) (UniProt O54698).
T2 sequence (whole entry): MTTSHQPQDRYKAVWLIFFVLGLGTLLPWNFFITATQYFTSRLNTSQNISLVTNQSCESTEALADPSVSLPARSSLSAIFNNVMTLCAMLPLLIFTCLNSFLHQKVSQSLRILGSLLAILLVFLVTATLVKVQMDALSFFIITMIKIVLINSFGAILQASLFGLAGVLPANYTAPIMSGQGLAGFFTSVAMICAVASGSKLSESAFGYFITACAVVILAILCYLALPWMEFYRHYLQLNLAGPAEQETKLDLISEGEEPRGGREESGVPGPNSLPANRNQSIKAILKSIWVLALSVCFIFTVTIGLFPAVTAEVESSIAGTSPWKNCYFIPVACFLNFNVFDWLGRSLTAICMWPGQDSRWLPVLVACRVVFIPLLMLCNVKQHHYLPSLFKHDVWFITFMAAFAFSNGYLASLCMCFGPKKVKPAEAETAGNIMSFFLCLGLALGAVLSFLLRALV
Kind of assay: Transport through ENT1 in rat hepatocytes by oil filtration assay in presence of sodium ions in Kreb-henseleit buffer. The note with it: Hepatocyte.

Assay [4] addresses T3, Sodium/nucleoside cotransporter 1 (Rattus norvegicus) (UniProt Q62674).
T3 sequence (whole entry): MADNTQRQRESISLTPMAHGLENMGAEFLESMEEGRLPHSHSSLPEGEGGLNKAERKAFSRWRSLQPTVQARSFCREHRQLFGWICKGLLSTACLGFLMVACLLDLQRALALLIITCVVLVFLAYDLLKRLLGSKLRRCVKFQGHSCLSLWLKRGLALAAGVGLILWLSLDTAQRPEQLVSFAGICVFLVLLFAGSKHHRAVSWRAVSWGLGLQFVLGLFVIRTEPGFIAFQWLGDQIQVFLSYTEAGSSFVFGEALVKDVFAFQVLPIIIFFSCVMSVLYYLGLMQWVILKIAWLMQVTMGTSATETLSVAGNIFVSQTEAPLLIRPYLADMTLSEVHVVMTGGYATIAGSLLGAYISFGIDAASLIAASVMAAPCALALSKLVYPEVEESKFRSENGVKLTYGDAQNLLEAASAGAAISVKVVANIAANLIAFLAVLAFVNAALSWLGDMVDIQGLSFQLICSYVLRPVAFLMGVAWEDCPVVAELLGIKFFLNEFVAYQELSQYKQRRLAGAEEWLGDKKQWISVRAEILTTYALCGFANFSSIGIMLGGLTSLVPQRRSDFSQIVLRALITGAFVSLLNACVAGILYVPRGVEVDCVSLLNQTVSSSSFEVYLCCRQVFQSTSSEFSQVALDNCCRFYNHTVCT
The assay can be described thus: Transport through CNT1 in rat hepatocytes by oil filtration assay in presence of sodium ions in Kreb-henseleit buffer. The note with it: Hepatocyte.

The target in assay [5] is T2, Equilibrative nucleoside transporter 1 (Rattus norvegicus). Kind of assay: Transport through ENT1 in rat hepatocytes by oil filtration assay. The note with it: Hepatocyte.
Assay [6] concerns the target T4, Equilibrative nucleoside transporter 2 (Rattus norvegicus) (UniProt O54699).
T4 sequence (whole entry): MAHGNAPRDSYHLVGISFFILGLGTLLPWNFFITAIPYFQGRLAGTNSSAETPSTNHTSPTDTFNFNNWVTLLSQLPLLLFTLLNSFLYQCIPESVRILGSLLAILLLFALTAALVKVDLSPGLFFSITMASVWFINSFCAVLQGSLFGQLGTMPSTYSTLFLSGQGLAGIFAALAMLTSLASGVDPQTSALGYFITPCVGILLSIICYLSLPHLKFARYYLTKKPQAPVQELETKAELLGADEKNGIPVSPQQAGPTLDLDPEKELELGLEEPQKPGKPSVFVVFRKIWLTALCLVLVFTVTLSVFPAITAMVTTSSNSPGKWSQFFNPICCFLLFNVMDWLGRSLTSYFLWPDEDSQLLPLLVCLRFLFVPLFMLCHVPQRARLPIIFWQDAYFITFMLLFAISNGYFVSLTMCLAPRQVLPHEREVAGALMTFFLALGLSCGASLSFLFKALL
The assay can be described thus: Transport through ENT2 in rat hepatocytes by oil filtration assay. The note with it: Hepatocyte.

In assay [7] the target is T3, Sodium/nucleoside cotransporter 1 (Rattus norvegicus). The assay can be described thus: Transport through CNT1 in rat hepatocytes by oil filtration assay. The note with it: Hepatocyte.
In assay [8] the test system is Hepatocyte. The assay can be described thus: Transport through CNT3 in rat hepatocytes by oil filtration assay in presence of sodium ions in Kreb-henseleit buffer containing 100 uM NBMPR and thymidine.
Assay [9] has as its system Hepatocyte. The assay can be described thus: Transport through CNT3 in rat hepatocytes by oil filtration assay in presence of sodium ions in Kreb-henseleit buffer containing 100 uM NBMPR and 1 mM uridine.
Assay [10] deals with T2, Equilibrative nucleoside transporter 1 (Rattus norvegicus). The assay can be described thus: Transport through ENT1 in rat hepatocytes by oil filtration assay in presence 100 uM of transporter inhibitor NBMRP. The note with it: Hepatocyte.

Calls of active or inactive are those of the source. The rule behind the calls is not given here.

Turning to `Nc1ncnc2c1ncn2[C@@H]1O[C@H](CO)[C@@H](O)[C@H]1O`, the outcome in assay [1], in assay [2], in [3], in assay [5], in assay [6] and in assay [7] was inactive. The result in assay [8], in assay [9] and in [10] was inactive. The outcome in [4] was Active.

Consider `NC(=O)c1ncn([C@@H]2O[C@H](CO)[C@@H](O)[C@H]2O)n1`, for which the outcome in assay [1], in assay [2], in assay [3], in assay [8], in assay [9] and in assay [10] was inactive. The result in assay [4], in assay [5], in [6] and in assay [7] was Active.

The values above are taken from ChEMBL document CHEMBL1275601, “Striking species difference in the contribution of concentrative nucleoside transporter 2 to nucleoside uptake between mouse and rat hepatocytes” (Antimicrob Agents Chemother, 2010).
